What was measured:
[1] = biological target: T1, Recombinant full-length human IDO1 (Homo sapiens, UniProt P14902); assay: IDO1 enzymatic assay (NFK quantified by LCMS); format: biochemical; conditions: 2 nM enzyme, 5 μM L-tryptophan, pH6.5, 30 minutes pre-incubation at RT; mean values when measured multiple times; read-out: hIDO activity (IC50 in nM)
T1 construct: Recombinant full-length human IDO1 with a N-terminal hexahistidine tag; hexahistidine (His6) (N); made in house; host or cells: E. coli
In short: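 His-tagged human IDO1 (2 nM) in pH 6.5 phosphate buffer with ascorbate, methylene blue and catalase was preincubated with compound (10 μM–0.5 nM, 0.6% DMSO) for 30 min at RT. The reaction then ran with 5 μM L-Trp for 30 min. NFK was measured by LCMS against a d5-Trp standard, and IC50 was obtained by four-parameter fit.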

[2] = biological target: T2, Recombinant human TDO comprising amino acids 19-407 (Homo sapiens, UniProt P48775); assay: TDO2 enzymatic assay (NFK quantified by LCMS); format: biochemical; conditions: 15 nM enzyme, 200 μM L-tryptophan, pH7, 30 minutes pre-incubation at RT; mean values when measured multiple times; read-out: hTDO activity (IC50 in nM)
T2 construct: Recombinant human TDO comprising amino acids 19-407 with a N-terminal hexahistidine tag; hexahistidine (His6) (N); made in house; host or cells: E. coli
In short: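 NFK formed over 30 min at RT from 200 μM L-tryptophan was measured by LCMS, normalized to d5-tryptophan, after compound (0.5 nM–10 μM, duplicates, 0.6% DMSO) was preincubated 30 min with 15 nM recombinant His-tagged TDO 19-407 in phosphate buffer pH 7. IC50 from four-parameter logistic fit; repeats averaged.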

T2 sequence (P48775 19-406 limits assumed): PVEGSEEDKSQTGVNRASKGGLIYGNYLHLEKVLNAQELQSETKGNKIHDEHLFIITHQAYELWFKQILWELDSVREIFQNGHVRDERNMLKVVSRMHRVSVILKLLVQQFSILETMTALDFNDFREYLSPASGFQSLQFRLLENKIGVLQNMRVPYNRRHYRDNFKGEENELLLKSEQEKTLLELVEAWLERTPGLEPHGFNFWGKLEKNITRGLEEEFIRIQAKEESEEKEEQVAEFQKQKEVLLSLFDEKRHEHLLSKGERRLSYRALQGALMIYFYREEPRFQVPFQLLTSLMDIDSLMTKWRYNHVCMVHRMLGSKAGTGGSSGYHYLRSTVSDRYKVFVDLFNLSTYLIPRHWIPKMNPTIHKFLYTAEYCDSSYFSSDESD
T1 sequence (P14902 whole entry): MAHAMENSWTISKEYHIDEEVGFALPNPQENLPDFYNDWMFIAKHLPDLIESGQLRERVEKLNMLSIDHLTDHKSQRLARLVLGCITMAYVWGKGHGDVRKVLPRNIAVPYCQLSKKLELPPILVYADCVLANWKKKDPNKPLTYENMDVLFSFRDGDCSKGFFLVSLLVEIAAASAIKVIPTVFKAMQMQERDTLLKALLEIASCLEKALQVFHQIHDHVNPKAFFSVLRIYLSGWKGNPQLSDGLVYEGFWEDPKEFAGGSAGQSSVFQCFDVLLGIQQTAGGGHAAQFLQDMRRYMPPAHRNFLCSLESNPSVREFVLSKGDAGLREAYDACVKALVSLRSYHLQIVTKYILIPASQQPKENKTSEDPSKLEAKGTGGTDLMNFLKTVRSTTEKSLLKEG

`CCc1sc2cncn2c1C(O)c1cn(-c2ccc(NC(=O)OC(C)(C)C)cc2)nn1` (racemic) [Example 234, rac-(4-{4-[(2-Ethyl-imidazo[5,1-b]thiazol-3-yl)-hydroxy-methyl]-[1,2,3]triazol-1-yl}-phenyl)-carbamic Acid Tert-Butyl Ester] gave an IC50 [1] of 36.7 nM and an IC50 [2] of 7940 nM.
With `NS(=O)(=O)c1ccc(-n2cc(C(O)c3c(C4CC4)sc4cncn34)nn2)cc1` (racemic) [Example 235, rac-4-{4-[(2-Cyclopropyl-imidazo[5,1-b]thiazol-3-yl)-hydroxy-methyl]-[1,2,3]triazol-1-yl}-benzenesulfonamide] the IC50 [1] was 24.3 nM and the IC50 [2] was > 10200 nM.
`CN(C)S(=O)(=O)c1ccc(-n2cc(C(O)c3c(C4CC4)sc4cncn34)nn2)cc1` (racemic) [Example 236, rac-4-{4-[(2-Cyclopropyl-imidazo[5,1-b]thiazol-3-yl)-hydroxy-methyl]-[1,2,3]triazol-1-yl}-N,N-dimethyl-benzenesulfonamide] was tested, and the IC50 [1] was 105 nM and the IC50 [2] was > 10200 nM.
`O=S(=O)(c1ccc(-n2cc(C(O)c3c(C4CC4)sc4cncn34)nn2)cc1)N1CCCC1` (racemic) [Example 237, rac-(2-Cyclopropyl-imidazo[5,1-b]thiazol-3-yl)-{1-[4-(pyrrolidine-1-sulfonyl)-phenyl]-1H-[1,2,3]triazol-4-yl}-methanol] was tested, and the IC50 [1] was 155 nM and the IC50 [2] was > 10200 nM.
In the case of `CCN(CC)S(=O)(=O)c1ccc(-n2cc(C(O)c3c(C4CC4)sc4cncn34)nn2)cc1` (racemic) [Example 238, rac-4-{4-[(2-Cyclopropyl-imidazo[5,1-b]thiazol-3-yl)-hydroxy-methyl]-[1,2,3]triazol-1-yl}-N,N-diethyl-benzenesulfonamide], the IC50 [1] is reported as 137 nM and the IC50 [2] is reported as > 10200 nM.
In the case of `CCNS(=O)(=O)c1ccc(-n2cc(C(O)c3c(C4CC4)sc4cncn34)nn2)cc1` (racemic) [Example 239, rac-4-{4-[(2-Cyclopropyl-imidazo[5,1-b]thiazol-3-yl)-hydroxy-methyl]-[1,2,3]triazol-1-yl}-N-ethyl-benzenesulfonamide], the IC50 [1] is reported as 53 nM and the IC50 [2] is reported as > 10200 nM.
In the case of `CCc1sc2cncn2c1C(O)c1cn(-c2ccc(S(N)(=O)=O)cc2)nn1` (racemic) [Example 240, rac-4-{4-[(2-Ethyl-imidazo[5,1-b]thiazol-3-yl)-hydroxy-methyl]-[1,2,3]triazol-1-yl}-benzenesulfonamide], the IC50 [1] is reported as 28.3 nM and the IC50 [2] is reported as 7480 nM.
For `CCc1sc2cncn2c1C(O)c1cn(-c2ccc(S(=O)(=O)N(C)C)cc2)nn1` (racemic) [Example 241, rac-4-{4-[(2-Ethyl-imidazo[5,1-b]thiazol-3-yl)-hydroxy-methyl]-[1,2,3]triazol-1-yl}-N,N-dimethyl-benzenesulfonamide], the IC50 [1] was 66 nM and the IC50 [2] was > 10200 nM.
In the case of `CCc1sc2cncn2c1C(O)c1cn(-c2ccc(S(=O)(=O)N3CCCC3)cc2)nn1` (racemic) [Example 242, rac-(2-Ethyl-imidazo[5,1-b]thiazol-3-yl)-{1-[4-(pyrrolidine-1-sulfonyl)-phenyl]-1H-[1,2,3]triazol-4-yl}-methanol], the IC50 [1] is reported as 139 nM and the IC50 [2] is reported as > 10200 nM.
With `CCc1sc2cncn2c1C(O)c1cn(-c2ccc(S(=O)(=O)N(CC)CC)cc2)nn1` (racemic) [Example 243, rac-N,N-Diethyl-4-{4-[(2-ethyl-imidazo[5,1-b]thiazol-3-yl)-hydroxy-methyl]-[1,2,3]triazol-1-yl}-benzenesulfonamide] the IC50 [1] was 101 nM and the IC50 [2] was > 10200 nM.
For `CCNS(=O)(=O)c1ccc(-n2cc(C(O)c3c(CC)sc4cncn34)nn2)cc1` (racemic) [Example 244, rac-N-Ethyl-4-{4-[(2-ethyl-imidazo[5,1-b]thiazol-3-yl)-hydroxy-methyl]-[1,2,3]triazol-1-yl}-benzenesulfonamide], the IC50 [1] was 47.2 nM and the IC50 [2] was > 10200 nM.
Work on `CCc1sc2cncn2c1C(O)c1cn(-c2ccc(NC(=O)OC(C)(C)C)cc2F)nn1` (racemic) [Example 245, rac-(4-{4-[(2-Ethyl-imidazo[5,1-b]thiazol-3-yl)-hydroxy-methyl]-[1,2,3]triazol-1-yl}-3-fluoro-phenyl)-carbamic Acid Tert-Butyl Ester] yielded an IC50 [1] of 40.8 nM and an IC50 [2] of 6810 nM.
Work on `CC(C)C(=O)Nc1ccc(-n2cc(C(O)c3c(C4CC4)sc4cncn34)cn2)cc1` (racemic) [Example 246, rac-N-(4-{4-[(2-Cyclopropyl-imidazo[5,1-b]thiazol-3-yl)-hydroxy-methyl]-pyrazol-1-yl}-phenyl)-isobutyramide] yielded an IC50 [1] of 29.8 nM and an IC50 [2] of 3800 nM.
`COc1ccc(-n2cc(C(O)c3c(C4CC4)sc4cncn34)cn2)cc1C#N` (racemic) [Example 247, rac-5-{4-[(2-Cyclopropyl-imidazo[5,1-b]thiazol-3-yl)-hydroxy-methyl]-pyrazol-1-yl}-2-methoxy-benzonitrile] was tested, and the IC50 [1] was 31.3 nM and the IC50 [2] was 8140 nM.
`O=[N+]([O-])c1cc(-n2cc(C(O)c3c(C4CC4)sc4cncn34)nn2)ccc1O` (racemic) [Example 248, rac-4-{4-[(2-Cyclopropyl-imidazo[5,1-b]thiazol-3-yl)-hydroxy-methyl]-[1,2,3]triazol-1-yl}-2-nitro-phenol] was tested, and the IC50 [1] was 2.6 nM and the IC50 [2] was 4710 nM.
In the case of `COc1ccc(-n2cc(C(O)c3c(-c4ccccc4)sc4cncn34)nn2)cc1` (racemic) [Example 249, rac-[1-(4-Methoxy-phenyl)-1H-[1,2,3]triazol-4-yl]-(2-phenyl-imidazo[5,1-b]thiazol-3-yl)-methanol], the IC50 [1] is reported as 74.8 nM and the IC50 [2] is reported as > 10200 nM.
Molecule `O=[N+]([O-])c1cc(-n2cc(C(O)c3c(-c4ccccc4)sc4cncn34)nn2)ccc1O` (racemic) [Example 250, rac-4-{4-[Hydroxy-(2-phenyl-imidazo[5,1-b]thiazol-3-yl)-methyl]-[1,2,3]triazol-1-yl}-2-nitro-phenol] has an IC50 [1] of 23.8 nM and an IC50 [2] of 2300 nM.
With `CC(C)(C)OC(=O)Nc1ccc(-n2cc(C(O)c3c(-c4ccccc4)sc4cncn34)nn2)cc1` (racemic) [Example 251, rac-(4-{4-[Hydroxy-(2-phenyl-imidazo[5,1-b]thiazol-3-yl)-methyl]-[1,2,3]triazol-1-yl}-phenyl)-carbamic acid tert-butyl ester] the IC50 [1] was 569 nM and the IC50 [2] was > 10200 nM.
`COc1ccc(-n2nnc(C(O)c3c(C4CC4)sc4cncn34)c2C)cc1` (racemic) [Example 252, rac-(2-Cyclopropyl-imidazo[5,1-b]thiazol-3-yl)-[1-(4-methoxy-phenyl)-5-methyl-1H-[1,2,3]triazol-4-yl]-methanol] gave an IC50 [1] of 4.13 nM and an IC50 [2] of 7010 nM.
With `OC(c1cn(-c2ccc3[nH]ncc3c2)nn1)c1c(C2CC2)sc2cncn12` (racemic) [Example 253, rac-(2-Cyclopropyl-imidazo[5,1-b]thiazol-3-yl)-[1-(1H-indazol-5-yl)-1H-[1,2,3]triazol-4-yl]-methanol] the IC50 [1] was 17.2 nM and the IC50 [2] was > 10200 nM.
With `Cn1ncc2cccc(-n3cc(C(O)c4c(C5CC5)sc5cncn45)nn3)c21` (racemic) [Example 254, rac-(2-Cyclopropyl-imidazo[5,1-b]thiazol-3-yl)-[1-(1-methyl-1H-indazol-7-yl)-1H-[1,2,3]triazol-4-yl]-methanol] the IC50 [1] was 38.5 nM and the IC50 [2] was > 10200 nM.
Work on `COc1ccc(-n2nnc(C(O)c3c(C)sc4cncn34)c2C)cc1` (racemic) [Example 255, rac-[1-(4-Methoxy-phenyl)-5-methyl-1H-[1,2,3]triazol-4-yl]-(2-methyl-imidazo[5,1-b]thiazol-3-yl)-methanol] yielded an IC50 [1] of 14.2 nM and an IC50 [2] of 6940 nM.
For `CNS(=O)(=O)Nc1ccc(-n2cc(C(O)c3c(C4CC4)sc4cncn34)nn2)cc1` (racemic) [Example 256, rac-4-{4-[(2-Cyclopropyl-imidazo[5,1-b]thiazol-3-yl)-hydroxy-methyl]-[1,2,3]triazol-1-yl}-((N-methylsulfamoyl)amino)-benzene], the IC50 [1] was 26.3 nM and the IC50 [2] was > 10200 nM.
`COc1ccc(-n2cc(C(O)c3c(C(C)(F)F)sc4cncn34)nn2)cc1` (racemic) [Example 257, rac-[2-(1,1-Difluoro-ethyl)-imidazo[5,1-b]thiazol-3-yl]-[1-(4-methoxy-phenyl)-1H-[1,2,3]triazol-4-yl]-methanol] was tested, and the IC50 [1] was 17.5 nM and the IC50 [2] was > 10200 nM.
For `OC(c1cn(-c2ccc3c(Cl)n[nH]c3c2)nn1)c1c(C2CC2)sc2cncn12` (racemic) [Example 258, rac-[1-(3-Chloro-1H-indazol-6-yl)-1H-[1,2,3]triazol-4-yl]-(2-cyclopropyl-imidazo[5,1-b]thiazol-3-yl)-methanol], the IC50 [1] was 34 nM and the IC50 [2] was > 10200 nM.
In the case of `COc1ccc(-n2cc(C(O)c3c(C4=CCCC4)sc4cncn34)nn2)cc1` (racemic) [Example 259, rac-(2-(Cyclopent-1-enyl)-imidazo[5,1-b]thiazol-3-yl)-[1-(4-methoxy-phenyl)-1H-[1,2,3]triazol-4-yl]-methanol], the IC50 [1] is reported as 85.6 nM and the IC50 [2] is reported as > 10200 nM.
In the case of `OC(c1cnn(-c2cccnc2)c1)c1c(C2CC2)sc2cncn12` (racemic) [Example 260, rac-(2-Cyclopropyl-imidazo[5,1-b]thiazol-3-yl)-(1-pyridin-3-yl-1H-pyrazol-4-yl)-methanol], the IC50 [1] is reported as 43.2 nM and the IC50 [2] is reported as 6510 nM.

Source: patent US20200405696A1, “INHIBITORS OF INDOLEAMINE 2,3-DIOXYGENASE AND/OR TRYPTOPHAN 2,3-DIOXYGENASE” (IDORSIA PHARMACEUTICALS LTD, priority 2018, published 2020)
